Where a name gives a salt, the structure may show the parent alone.
Legend:
cardiac arrhythmias = conditions: cited from earlier work
[1] = molecular target: T1, Na^+ /H^+ exchanger of rabbit erythrocytes (Oryctolagus cuniculus, UniProt P23791); experiment: Inhibition of the Na^+ /H^+ exchanger of rabbit erythrocytes (amiloride-sensitive sodium influx, flame photometry); type: cell-based, rabbit (New Zealand White); conditions: pH 7.4, 37° C., hyperosmolar salt/sucrose medium
T1 construct: exchanger of rabbit erythrocytes; from tissue; host or cells: erythrocytes in blood of cholesterol-fed New Zealand White rabbits
T1 sequence (P23791 whole entry): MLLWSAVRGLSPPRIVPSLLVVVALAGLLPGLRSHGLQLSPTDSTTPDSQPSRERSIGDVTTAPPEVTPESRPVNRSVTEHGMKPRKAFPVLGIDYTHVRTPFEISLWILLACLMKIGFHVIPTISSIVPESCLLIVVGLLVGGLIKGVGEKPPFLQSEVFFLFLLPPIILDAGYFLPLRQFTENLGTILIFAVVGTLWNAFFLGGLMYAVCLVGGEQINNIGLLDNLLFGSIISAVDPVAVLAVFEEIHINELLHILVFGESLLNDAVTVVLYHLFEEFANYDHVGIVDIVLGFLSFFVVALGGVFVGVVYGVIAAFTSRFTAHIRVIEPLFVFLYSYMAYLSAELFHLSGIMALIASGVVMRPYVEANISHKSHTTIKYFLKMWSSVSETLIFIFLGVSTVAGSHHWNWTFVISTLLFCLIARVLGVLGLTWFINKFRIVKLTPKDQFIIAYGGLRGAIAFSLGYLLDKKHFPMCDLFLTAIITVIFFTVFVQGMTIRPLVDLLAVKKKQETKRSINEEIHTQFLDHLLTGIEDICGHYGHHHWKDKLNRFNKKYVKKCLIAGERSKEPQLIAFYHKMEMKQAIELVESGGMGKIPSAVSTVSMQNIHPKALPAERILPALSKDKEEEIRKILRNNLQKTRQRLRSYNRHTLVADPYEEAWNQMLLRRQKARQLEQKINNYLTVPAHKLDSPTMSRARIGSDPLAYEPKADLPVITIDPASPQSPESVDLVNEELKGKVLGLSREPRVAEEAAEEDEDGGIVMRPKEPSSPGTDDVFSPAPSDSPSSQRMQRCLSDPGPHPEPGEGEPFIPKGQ
Description: Inhibition of the Na^+ /H^+ exchanger of rabbit erythrocytes
New Zealand White rabbits (Ivanovas) received a standard diet containing 2% cholesterol for six weeks in order to activate the Na^+ /H^+ exchange and thus to be able to determine, by flame photomerry, the Na^+ influx into the erythrocytes via Na^+ /H^+ exchange. The blood was removed from the aural arteries and rendered incoagulable using 25 IU of potassium heparin. A part of each sample was used for the duplicate determination of the hematocrit by means of centrifugation. Aliquots of in each case 100 μl were used for measuring the initial Na^+ content of the erythrocytes.
In order to determine the amiloride-sensitive sodium influx, 100 μl of each blood sample were in each case incubated, at pH 7.4 and 37° C., in 5 ml of a hyperosmolar salt/sucrose medium (mmol/1: 140 NaCl, 3 KCl, 150 sucrose, 0.1 ouabain, 20 tris(hydroxymethyl)aminomethane). The erythrocytes were then washed three times with ice-cold MgCl2 /ouabain solution ([…]: 112 MgCl2, 0.1 ouabain) and hemolyzed in 2.0 ml of distilled water. The intracellular sodium content was determined by flame photometry.
The net influx of Na^+ was calculated from the difference between the initial sodium values and the sodium content of the erythrocytes following incubation. The amiloride-inhibitable sodium influx was calculated from the difference in the sodium content of the erythrocytes following incubation with and without amiloride 3×10^-4 mol/1. This method was also employed in the case of the compounds according to the invention.

Row | Compound | antiarrhythmic effect (cardiac arrhythmias; Circulation 79, 1257 to 1263 (1989)) | hypotensive and saluretic side effects (cardiac arrhythmias; in vivo) | IC50 [1]
1 | N=C(N)NC(=O)c1nc(Cl)c(N)nc1N [amiloride, Amiloride] | only weakly expressed | accompanied by hypotensive and saluretic effects | 
2 | CS(=O)(=O)c1cc(C(=O)N=C(N)N)ccc1Oc1ccc(-c2cccnc2)cc1 [Example 3, 4-[4-(3-Pyridyl)phenoxy]-3-methylsulfonylbenzoylguanidine, dihydrochloride] |  |  | 200 nM
3 | CS(=O)(=O)c1cc(C(=O)N=C(N)N)ccc1Oc1ccc(-c2ccccn2)cc1 [Example 5, 4-[4-(2-Pyridyl)phenoxy]-3-methylsulfonylbenzoylguanidine, dihydrochloride] |  |  | 300 nM
4 | CS(=O)(=O)c1cc(C(=O)N=C(N)N)ccc1Oc1ccc(-c2nccn2Cc2ccccc2)cc1 [Example 1, 4-(1-Benzylimidazol-2-yl)phenoxy-3-methylsulfonylhenzoylguanidine, dihydrochloride] |  |  | 300 nM
5 | CS(=O)(=O)c1cc(C(=O)N=C(N)N)ccc1Oc1ccc(-c2ncc[nH]2)cc1 [Example 2, 4-(Imidazol-2-yl)phenoxy-3-methylsulfonylbenzoylguanidine, dihydrochloride] |  |  | 300 nM
